This note sets out measurements from ChEMBL document CHEMBL1201862, “PubChem BioAssay data set” (2004).

As usually defined, the AC50 is the midpoint of the concentration-response curve, whichever way the signal moves. A word on the IC50: it is the concentration needed to halve the response being measured. What is called Ki is the equilibrium dissociation constant of an inhibitor or competing ligand from its target.

The nature of assay [1]: A Cell Based Secondary Assay to Explore Cytotoxicity in HepG2 Cells of Compounds that Modulate Mycobacterium tuberculosis in Media Containing Glycerol versus Media without Glycerol (2). The class given is functional.
Assay [2] is described as follows: A Cell Based Secondary Assay to Explore Cytotoxicity in THP-1 Cells of Compounds that Modulate Mycobacterium tuberculosis in Media Containing Glycerol versus Media without Glycerol (2). The class given is functional.
A short description of assay [3]: Vero cell cytotoxicity, cytotoxicity control for M. tuberculosis inhibitor project, purified and synthesized samples, set 3 (AID 504684). The conditions noted are these: […]. The class given is functional.
Assay [4] has as its target Heat shock protein HSP 90-alpha (Homo sapiens, UniProt P07900). The class given is functional, organism-based.
Assay [5] is described as follows: microbe, parasite or virus in culture. Type of assay: functional. The conditions noted are these: Mycobacterium tuberculosis.
The target of assay [6] is T1, High affinity choline transporter 1 (Homo sapiens, UniProt Q9GZV3).
T1 sequence (Q9GZV3 whole entry): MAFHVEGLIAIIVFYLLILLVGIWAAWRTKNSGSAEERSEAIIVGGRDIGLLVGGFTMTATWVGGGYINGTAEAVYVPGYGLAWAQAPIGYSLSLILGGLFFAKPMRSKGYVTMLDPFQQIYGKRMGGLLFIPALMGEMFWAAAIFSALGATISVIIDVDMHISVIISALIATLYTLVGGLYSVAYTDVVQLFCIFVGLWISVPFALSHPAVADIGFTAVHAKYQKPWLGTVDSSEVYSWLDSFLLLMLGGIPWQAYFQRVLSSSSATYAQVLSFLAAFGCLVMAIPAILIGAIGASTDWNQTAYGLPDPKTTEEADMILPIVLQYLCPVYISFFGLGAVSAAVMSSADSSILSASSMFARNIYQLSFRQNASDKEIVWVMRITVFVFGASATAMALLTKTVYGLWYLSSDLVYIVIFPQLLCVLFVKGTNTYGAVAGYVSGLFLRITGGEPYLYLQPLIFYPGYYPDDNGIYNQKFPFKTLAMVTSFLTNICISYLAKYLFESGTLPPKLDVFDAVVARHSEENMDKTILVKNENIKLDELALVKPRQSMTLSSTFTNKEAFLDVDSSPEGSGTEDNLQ
Briefly: human choline transporter blockers, potency – cell-based, 10-point CRC, membrane potential dye, dose response (AID 588401).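 Further: membrane potential dye fluorescence of choline-evoked depolarization via CHT.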 The class given is functional.

Assay [7] has as its target T1, High affinity choline transporter 1. Briefly: human choline transporter blockers, potency – cell-based, 5-point CRC, membrane potential dye, dose response (AID 504840). Type of assay: functional.
For assay [8], the target named is Aurora kinase B (Homo sapiens, UniProt Q96GD4). The class given is functional.
Assay [9] concerns the target Activated CDC42 kinase 1 (Homo sapiens, UniProt Q07912). Briefly: Navigating the Kinome. Panel member name: ACK1. Type of assay: functional.
Assay [10] addresses Cyclin-dependent kinase 7 (Homo sapiens, UniProt P50613). The class given is functional.
Assay [11] has as its target Macrophage-stimulating protein receptor (Homo sapiens, UniProt Q04912). Briefly: Navigating the Kinome. Panel member name: MST1R. Type of assay: functional.
The target of assay [12] is Serine/threonine-protein kinase TAO1 (Homo sapiens, UniProt Q7L7X3). The class given is functional.
In assay [13] the target is Fibroblast growth factor receptor 1 (Homo sapiens, UniProt P11362). Type of assay: functional.
Assay [14] has as its target Tyrosine-protein kinase Fyn (Homo sapiens, UniProt P06241). Type of assay: functional.
Assay [15] deals with Mitogen-activated protein kinase 8 (Homo sapiens, UniProt P45983). Type of assay: functional.
The target of assay [16] is Casein kinase I isoform alpha (Homo sapiens, UniProt P48729). Type of assay: functional.
In assay [17] the target is Dual specificity protein kinase CLK4 (Homo sapiens, UniProt Q9HAZ1). Type of assay: functional.
Assay [18] deals with Tyrosine-protein kinase Lck (Homo sapiens, UniProt P06239). Type of assay: functional.
For assay [19], the target named is Focal adhesion kinase 1 (Homo sapiens, UniProt Q05397). The class given is functional.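 Further: measured as one member of a kinome panel.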
Assay [20] addresses Dual specificity mitogen-activated protein kinase kinase 2 (Homo sapiens, UniProt P36507). Briefly: Navigating the Kinome. Panel member name: MAP2K2. The class given is functional.
In assay [21] the target is Calcium/calmodulin-dependent protein kinase type II subunit alpha (Homo sapiens, UniProt Q9UQM7). Briefly: Navigating the Kinome. Panel member name: CAMK2A. Type of assay: functional.
Assay [22] has as its target Vascular endothelial growth factor receptor 1 (Homo sapiens, UniProt P17948). Type of assay: functional.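 Further: measured within a kinome-wide profiling panel, FLT1 as the panel member.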
Assay [23] has as its target Dual specificity protein kinase CLK2 (Homo sapiens, UniProt P49760). Type of assay: functional.
Assay [24] concerns the target Mitogen-activated protein kinase 14 (Homo sapiens, UniProt Q16539). The class given is functional.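 Further: part of a kinome-wide panel, MAPK14 entry.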
Assay [25] deals with Cyclin-dependent kinase 8 (Homo sapiens, UniProt P49336). Briefly: Navigating the Kinome. Panel member name: CDK8. The class given is functional.
The target of assay [26] is LIM domain kinase 1 (Homo sapiens, UniProt P53667). The assay can be described thus: Navigating the Kinome. Panel member name: LIMK1. Type of assay: functional.
For assay [27], the target named is Serine/threonine-protein kinase Chk1 (Homo sapiens, UniProt O14757). Type of assay: functional.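 Further: measured as one member of a kinome-wide kinase profiling panel.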
Assay [28] concerns the target Death-associated protein kinase 3 (Homo sapiens, UniProt O43293). Type of assay: functional.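 Further: measured as one member of a kinome-wide profiling panel.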
Assay [29] addresses ALK tyrosine kinase receptor (Homo sapiens, UniProt Q9UM73). Type of assay: functional.
Assay [30] has as its target Glycogen synthase kinase-3 alpha (Homo sapiens, UniProt P49840). Type of assay: functional.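 Further: GSK3A result taken from a broad kinome-wide kinase panel.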
Assay [31] has as its target Tyrosine-protein kinase BTK (Homo sapiens, UniProt Q06187). Type of assay: functional.
Assay [32] concerns the target Dual specificity tyrosine-phosphorylation-regulated kinase 1A (Homo sapiens, UniProt Q13627). The class given is functional.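 Further: measured against DYRK1A as one member of a broad kinome profiling panel.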
The target of assay [33] is Tyrosine-protein kinase JAK3 (Homo sapiens, UniProt P52333). The class given is functional.
Assay [34] deals with Serine/threonine-protein kinase Nek2 (Homo sapiens, UniProt P51955). The class given is functional.
Assay [35] concerns the target Cyclin-dependent kinase 5 (Homo sapiens, UniProt Q00535). Type of assay: functional.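 Further: CDK5 measured as one member of a kinase profiling panel.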
Assay [36] concerns the target G protein-coupled receptor kinase 5 (Homo sapiens, UniProt P34947). The assay can be described thus: Navigating the Kinome. Panel member name: GPRK5. The class given is functional.
Assay [37] has as its target Mitogen-activated protein kinase kinase kinase kinase 4 (Homo sapiens, UniProt O95819). The class given is functional.
In assay [38] the target is Mitogen-activated protein kinase 9 (Homo sapiens, UniProt P45984). Type of assay: functional.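 Further: value from a kinome panel profiling assay, MAPK9 panel entry.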
Assay [39] concerns the target BDNF/NT-3 growth factors receptor (Homo sapiens, UniProt Q16620). The class given is functional.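 Further: NTRK2 measured as one member of a broad kinome-wide kinase profiling panel.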
For assay [40], the target named is Serine/threonine-protein kinase D3 (Homo sapiens, UniProt O94806). Type of assay: functional.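 Further: determined within a kinase panel screen, with PRKCN as the panel member.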
The target in assay [41] is Serine/threonine-protein kinase pim-1 (Homo sapiens, UniProt P11309). Type of assay: functional.
Assay [42] concerns the target Serine/threonine-protein kinase PAK 4 (Homo sapiens, UniProt O96013). The class given is functional.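 Further: value obtained within a kinome profiling panel in which PAK4 was one of the panel members.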
Assay [43] addresses Activin receptor type-1 (Homo sapiens, UniProt Q04771). The assay can be described thus: Navigating the Kinome. Panel member name: ACVR1. Type of assay: functional.
Assay [44] concerns the target Aurora kinase A (Homo sapiens, UniProt O14965). The class given is functional.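 Further: value from the Navigating the Kinome kinase panel profiling, panel entry STK6.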
The target in assay [45] is T2, Melanin-concentrating hormone receptor 1 (Homo sapiens, UniProt Q99705). The assay can be described thus: Late-stage fluorescence-based counterscreen for antagonists of the G-protein coupled receptor 7 (GPR7): cell-based dose response assay to identify antagonists of the melanin-concentrating hormone receptor 1 (MCHR1) Set 5. Type of assay: functional.
In assay [46] the target is Calcium/calmodulin-dependent protein kinase type II subunit delta (Homo sapiens, UniProt Q13557). The class given is functional.
In assay [47] the target is Calcium/calmodulin-dependent protein kinase type II subunit beta (Homo sapiens, UniProt Q13554). Type of assay: functional.
For assay [48], the target named is Calcium/calmodulin-dependent protein kinase type II subunit gamma (Homo sapiens, UniProt Q13555). The class given is functional.
Assay [49] concerns the target Tyrosine-protein kinase FRK (Homo sapiens, UniProt P42685). Type of assay: functional.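 Further: FRK tested as one member of a kinome panel.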
Assay [50] has as its target cAMP-dependent protein kinase catalytic subunit alpha (Homo sapiens, UniProt P17612). Type of assay: functional.
Assay [51] deals with Homeodomain-interacting protein kinase 2 (Homo sapiens, UniProt Q9H2X6). The class given is functional.
For assay [52], the target named is Cell division cycle 7-related protein kinase (Homo sapiens, UniProt O00311). Type of assay: functional.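 Further: value obtained from a kinome-wide kinase panel.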
In assay [53] the target is Interleukin-1 receptor-associated kinase 4 (Homo sapiens, UniProt Q9NWZ3). Type of assay: functional.
The target of assay [54] is MAP kinase-interacting serine/threonine-protein kinase 2 (Homo sapiens, UniProt Q9HBH9). Type of assay: functional.
Assay [55] deals with Glycogen synthase kinase-3 beta (Homo sapiens, UniProt P49841). The class given is functional.
Assay [56] addresses Neuropeptides B/W receptor type 1 (Homo sapiens, UniProt P48145). The assay can be described thus: human NPBW1 receptor blockade, IC50 – cell-based, fluorescence, dose response, set 6, late-stage follow-up (AID 588583). The class given is functional.
In assay [57] the target is T2, Melanin-concentrating hormone receptor 1. Briefly: Late-stage fluorescence-based counterscreen for antagonists of the G-protein coupled receptor 7 (GPR7): cell-based dose response assay to identify antagonists of the melanin-concentrating hormone receptor 1 (MCHR1) Set 6. The class given is functional.

The source made the active and inactive calls.

Dual specificity protein kinase CLK4, sequence (Q9HAZ1 whole entry): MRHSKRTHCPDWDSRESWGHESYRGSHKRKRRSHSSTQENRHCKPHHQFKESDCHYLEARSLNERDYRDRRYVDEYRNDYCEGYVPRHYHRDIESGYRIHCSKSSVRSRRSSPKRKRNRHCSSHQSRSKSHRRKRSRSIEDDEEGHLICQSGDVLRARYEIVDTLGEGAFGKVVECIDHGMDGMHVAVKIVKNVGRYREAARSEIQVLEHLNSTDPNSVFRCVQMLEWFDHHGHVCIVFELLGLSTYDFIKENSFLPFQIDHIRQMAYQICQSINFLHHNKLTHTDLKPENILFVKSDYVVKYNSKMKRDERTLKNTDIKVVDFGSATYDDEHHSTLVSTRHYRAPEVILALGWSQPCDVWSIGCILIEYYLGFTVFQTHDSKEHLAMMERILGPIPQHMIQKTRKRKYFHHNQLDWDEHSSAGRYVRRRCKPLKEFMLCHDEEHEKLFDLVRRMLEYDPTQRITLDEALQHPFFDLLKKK
Serine/threonine-protein kinase pim-1, sequence (P11309 whole entry): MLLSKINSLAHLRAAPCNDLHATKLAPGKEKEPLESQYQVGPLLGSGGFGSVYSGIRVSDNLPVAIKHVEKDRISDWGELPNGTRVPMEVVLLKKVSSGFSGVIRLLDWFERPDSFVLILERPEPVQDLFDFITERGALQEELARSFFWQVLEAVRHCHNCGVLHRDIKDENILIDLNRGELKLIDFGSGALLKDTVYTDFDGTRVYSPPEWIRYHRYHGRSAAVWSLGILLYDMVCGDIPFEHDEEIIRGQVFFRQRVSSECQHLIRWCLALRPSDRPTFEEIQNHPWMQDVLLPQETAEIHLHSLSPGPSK
Mitogen-activated protein kinase kinase kinase kinase 4, sequence (O95819 whole entry): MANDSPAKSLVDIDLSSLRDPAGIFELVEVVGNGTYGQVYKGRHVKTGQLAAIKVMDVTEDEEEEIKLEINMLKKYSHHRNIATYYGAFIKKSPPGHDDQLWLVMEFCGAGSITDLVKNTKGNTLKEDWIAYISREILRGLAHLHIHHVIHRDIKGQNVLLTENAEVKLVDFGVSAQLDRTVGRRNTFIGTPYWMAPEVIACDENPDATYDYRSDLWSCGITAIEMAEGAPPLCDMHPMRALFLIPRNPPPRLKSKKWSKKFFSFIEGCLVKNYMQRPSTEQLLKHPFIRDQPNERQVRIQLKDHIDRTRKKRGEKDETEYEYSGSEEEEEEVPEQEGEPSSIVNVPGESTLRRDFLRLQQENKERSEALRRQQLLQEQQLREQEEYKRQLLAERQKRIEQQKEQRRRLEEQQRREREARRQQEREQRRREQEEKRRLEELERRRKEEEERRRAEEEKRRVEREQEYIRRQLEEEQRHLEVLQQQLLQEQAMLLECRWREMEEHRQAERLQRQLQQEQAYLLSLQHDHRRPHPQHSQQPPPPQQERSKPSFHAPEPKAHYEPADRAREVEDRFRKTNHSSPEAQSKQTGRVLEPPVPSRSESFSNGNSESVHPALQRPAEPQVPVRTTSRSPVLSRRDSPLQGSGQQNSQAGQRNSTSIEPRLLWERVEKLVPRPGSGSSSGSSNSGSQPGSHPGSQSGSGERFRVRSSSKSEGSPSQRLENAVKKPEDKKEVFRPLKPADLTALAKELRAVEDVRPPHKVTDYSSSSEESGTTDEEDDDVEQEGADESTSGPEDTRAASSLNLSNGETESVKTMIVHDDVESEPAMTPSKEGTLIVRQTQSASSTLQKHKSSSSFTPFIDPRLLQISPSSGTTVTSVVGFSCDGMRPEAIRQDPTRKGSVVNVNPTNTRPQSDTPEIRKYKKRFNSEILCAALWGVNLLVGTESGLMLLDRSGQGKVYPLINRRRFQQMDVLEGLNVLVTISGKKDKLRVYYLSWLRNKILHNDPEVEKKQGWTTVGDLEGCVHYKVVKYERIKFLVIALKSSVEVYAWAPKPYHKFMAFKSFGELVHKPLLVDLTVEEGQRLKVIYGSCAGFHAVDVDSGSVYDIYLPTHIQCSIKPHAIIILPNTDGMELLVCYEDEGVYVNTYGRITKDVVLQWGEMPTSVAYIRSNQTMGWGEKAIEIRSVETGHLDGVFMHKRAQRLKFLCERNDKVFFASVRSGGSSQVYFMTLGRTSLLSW
T2 sequence (Q99705 whole entry): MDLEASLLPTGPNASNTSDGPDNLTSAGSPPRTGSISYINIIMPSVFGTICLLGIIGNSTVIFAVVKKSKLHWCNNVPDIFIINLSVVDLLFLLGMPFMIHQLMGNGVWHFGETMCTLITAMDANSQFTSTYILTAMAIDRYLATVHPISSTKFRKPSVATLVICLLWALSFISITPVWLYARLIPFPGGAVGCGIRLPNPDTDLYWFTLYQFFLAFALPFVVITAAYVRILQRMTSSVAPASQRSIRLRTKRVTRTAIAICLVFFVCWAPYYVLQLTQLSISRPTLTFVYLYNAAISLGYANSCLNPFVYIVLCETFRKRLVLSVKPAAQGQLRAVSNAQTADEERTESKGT
Tyrosine-protein kinase JAK3, sequence (P52333 whole entry): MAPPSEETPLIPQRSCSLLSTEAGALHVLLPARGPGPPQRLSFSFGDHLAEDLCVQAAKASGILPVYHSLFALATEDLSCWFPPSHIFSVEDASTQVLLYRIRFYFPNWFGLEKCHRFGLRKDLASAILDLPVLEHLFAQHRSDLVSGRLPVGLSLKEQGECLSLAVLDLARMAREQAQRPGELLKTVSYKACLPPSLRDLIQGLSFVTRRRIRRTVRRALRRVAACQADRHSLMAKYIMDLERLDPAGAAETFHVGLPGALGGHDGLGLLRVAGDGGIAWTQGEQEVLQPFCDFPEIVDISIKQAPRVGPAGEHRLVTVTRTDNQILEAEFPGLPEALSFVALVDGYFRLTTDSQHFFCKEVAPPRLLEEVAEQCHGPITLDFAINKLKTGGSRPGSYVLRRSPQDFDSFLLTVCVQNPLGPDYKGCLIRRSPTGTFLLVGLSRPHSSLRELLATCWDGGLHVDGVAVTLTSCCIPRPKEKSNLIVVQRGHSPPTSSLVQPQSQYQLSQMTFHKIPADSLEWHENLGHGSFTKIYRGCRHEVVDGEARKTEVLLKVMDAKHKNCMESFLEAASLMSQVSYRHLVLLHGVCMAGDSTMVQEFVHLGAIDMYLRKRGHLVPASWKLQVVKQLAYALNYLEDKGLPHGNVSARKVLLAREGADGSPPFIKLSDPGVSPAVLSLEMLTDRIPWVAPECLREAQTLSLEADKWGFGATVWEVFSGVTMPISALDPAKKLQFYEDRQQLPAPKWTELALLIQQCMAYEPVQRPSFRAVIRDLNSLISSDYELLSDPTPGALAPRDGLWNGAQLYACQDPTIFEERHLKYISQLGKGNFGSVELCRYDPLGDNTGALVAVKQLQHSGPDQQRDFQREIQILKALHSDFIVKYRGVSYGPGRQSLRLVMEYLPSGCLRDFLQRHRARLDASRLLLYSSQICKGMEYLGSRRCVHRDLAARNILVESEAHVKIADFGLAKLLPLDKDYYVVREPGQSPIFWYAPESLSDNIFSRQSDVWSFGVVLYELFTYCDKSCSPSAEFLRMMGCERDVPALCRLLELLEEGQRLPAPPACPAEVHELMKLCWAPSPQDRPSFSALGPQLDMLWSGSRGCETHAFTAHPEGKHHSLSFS
Glycogen synthase kinase-3 beta, sequence (P49841 whole entry): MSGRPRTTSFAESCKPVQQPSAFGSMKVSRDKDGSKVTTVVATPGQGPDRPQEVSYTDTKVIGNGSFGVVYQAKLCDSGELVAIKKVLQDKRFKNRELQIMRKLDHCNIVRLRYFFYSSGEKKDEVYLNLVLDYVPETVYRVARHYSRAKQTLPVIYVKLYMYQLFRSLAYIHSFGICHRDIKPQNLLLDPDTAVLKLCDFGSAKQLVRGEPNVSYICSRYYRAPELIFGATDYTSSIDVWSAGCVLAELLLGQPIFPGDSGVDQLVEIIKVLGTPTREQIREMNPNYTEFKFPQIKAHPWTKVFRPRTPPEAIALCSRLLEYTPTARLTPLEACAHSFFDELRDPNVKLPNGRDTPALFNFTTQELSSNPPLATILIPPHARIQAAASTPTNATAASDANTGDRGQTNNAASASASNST
Dual specificity mitogen-activated protein kinase kinase 2, sequence (P36507 whole entry): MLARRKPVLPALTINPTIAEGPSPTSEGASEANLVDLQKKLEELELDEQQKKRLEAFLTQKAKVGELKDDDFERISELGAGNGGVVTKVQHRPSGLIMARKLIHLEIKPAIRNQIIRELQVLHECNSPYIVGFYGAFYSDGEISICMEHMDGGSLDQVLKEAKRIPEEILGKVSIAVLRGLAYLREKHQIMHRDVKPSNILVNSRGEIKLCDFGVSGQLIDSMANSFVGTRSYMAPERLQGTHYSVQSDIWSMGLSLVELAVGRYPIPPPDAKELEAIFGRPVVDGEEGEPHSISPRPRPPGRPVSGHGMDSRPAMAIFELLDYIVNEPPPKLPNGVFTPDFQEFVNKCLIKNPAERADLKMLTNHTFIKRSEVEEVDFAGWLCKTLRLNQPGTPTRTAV
Glycogen synthase kinase-3 alpha, sequence (P49840 whole entry): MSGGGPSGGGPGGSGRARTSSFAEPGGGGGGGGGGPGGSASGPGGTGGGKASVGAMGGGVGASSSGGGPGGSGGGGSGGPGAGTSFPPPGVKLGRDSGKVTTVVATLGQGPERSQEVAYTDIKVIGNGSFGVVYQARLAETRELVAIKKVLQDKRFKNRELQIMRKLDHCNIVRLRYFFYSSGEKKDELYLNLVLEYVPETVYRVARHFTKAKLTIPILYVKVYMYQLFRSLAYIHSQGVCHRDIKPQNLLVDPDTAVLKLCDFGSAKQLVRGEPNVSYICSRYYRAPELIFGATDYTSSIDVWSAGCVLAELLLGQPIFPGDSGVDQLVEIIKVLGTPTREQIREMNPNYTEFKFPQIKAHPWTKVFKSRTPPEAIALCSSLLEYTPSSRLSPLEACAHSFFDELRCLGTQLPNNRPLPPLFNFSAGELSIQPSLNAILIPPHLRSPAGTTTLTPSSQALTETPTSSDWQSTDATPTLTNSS

`CCC(C)Nc1ccc(NC(C)CC)cc1` (stereo not given): the CC50 in [1] was 6.68 µM (active); in assay [2] it was 3.8 µM (active); in [3], 11.2 µM (active); in assay [5], 15.9 µM (active). The AC50 in assay [4] was 4.52 µM (active).
Consider `CCCCN(CCCC)CCCNC(=O)C12CN(Cc3ccccc3)CC1C(c1cccc([N+](=O)[O-])c1)=NO2` (stereo not given), for which the IC50 in assay [6] is 1.19 µM (active); in [7], 2.46 µM (active).
As to `Nc1ccc2c(C(=O)O)n(-c3ccccc3)nc2c1`, the Ki was > 3.98 µM (inactive) in assay [8]; > 3.98 µM (inactive) in [9]; > 3.98 µM (inactive) in assay [10]; > 3.98 µM (inactive) in assay [11]; > 6.31 µM (inactive) in assay [12]; > 3.98 µM (inactive) in assay [13]. The Ki was > 6.31 µM (inactive) in [14]; > 5.01 µM (inactive) in assay [15]; 2.51 µM (active) in assay [16]; 0.501 µM (active) in assay [17]; > 6.31 µM (inactive) in assay [18]; > 6.31 µM (inactive) in [19]. The Ki in [20] was > 3.98 µM (inactive); in [21], > 3.98 µM (inactive); in assay [22] it was > 3.98 µM (inactive); in assay [23] it was > 3.98 µM (inactive); in assay [24], > 3.98 µM (inactive); in assay [25], 3.16 µM (active). Besides, the Ki in [26] is 0.794 µM (active); in assay [27], 0.398 µM (active); in assay [28] it was > 5.01 µM (inactive); in assay [29] it was > 6.31 µM (inactive); in [30], > 3.98 µM (inactive); in assay [31], > 6.31 µM (inactive). Further, the Ki was 1 µM (active) in assay [32]; > 5.01 µM (inactive) in assay [33]; 2 µM (active) in assay [34]; 2.51 µM (active) in assay [35]; > 3.98 µM (inactive) in assay [36]; > 5.01 µM (inactive) in assay [37]. For the same molecule, the Ki in assay [38] was > 3.98 µM (inactive); in assay [39], > 3.98 µM (inactive); in assay [40], > 3.98 µM (inactive); in [41], > 6.31 µM (inactive); in assay [42], > 5.01 µM (inactive); in assay [43], > 3.98 µM (inactive). The Ki in [44] is 1.26 µM (active).
Regarding `COc1ccc(Oc2c(Cl)cnn(C3c4ccccc4CCc4ccccc43)c2=O)cc1`, the IC50 in assay [45] was > 20 µM (inactive).
For `CCCC(=O)c1ccc(NCc2c[nH]nc2-c2ccc(C(F)(F)F)cc2)cc1`, the Ki was 3.98 µM (active) in assay [46], 1.26 µM (active) in [47], 3.98 µM (active) in [48] and 2 µM (active) in [49].
Consider `O=c1cc(-c2ccncc2)nc(NCc2cc(F)cc(F)c2)[nH]1`, for which the Ki in assay [17] was 0.0126 µM (active); in [50], 6.31 µM (active); in assay [51], 0.631 µM (active); in assay [52], 0.00631 µM (active); in [53], 2 µM (active); in [37] it was 0.0631 µM (active). For the same molecule, the values for the Ki in [41], in assay [54] and in assay [55] were 6.31 µM (active), 0.398 µM (active) and 0.2 µM (active), respectively.
With `N#CC(c1ccc(Cl)cc1)c1c(Cl)cnn(Cc2cccc3ccccc23)c1=O` (stereo not given), the IC50 in assay [56] and in [57] was 0.83 µM (active) each time.
